Patent publication US20060067924A1, “Probiotic bacteria and methods” (priority 2003, published 2006)
“Also recorded” adds a separate entry of the source.

Columns and labels:
[1] = tested on: Lachnospira multiparus-like organisms; settings: monensin supplementation; cited from earlier work
[2] = tested on: bacterial community of the chicken ileum; assay: T-RFLP analysis (HaeIII) of amplified 16S rDNA from the ileum of chickens fed different diets; assay type: in vivo; settings: for main bacterial composition present in TRFLP peaks in ileum: names in order of relative abundance of peaks; for Clostridiales, % peak areas / Lactobacillaceae, % peak areas: T-RFLP
Protocol: A comparative study of bacterial community of the chicken ileum was carried out using 16S rDNA gene analysis. The intestinal microbiota is part of a complex ecosystem. This study examined the effect of the growth promoting antibiotic, virginiamycin, and other commercial diets on the distribution and community structure of intestinal bacterial flora. Bacterial communities in the intestines of chickens were compared using terminal restriction fragment length polymorphism (T-RFLP) analysis targeting the 16S ribosomal DNA combining with 16S rDNA cloning library. The chickens were fed 4 different diets including a commercial corn-soy diet, corn-soy plus growth promotant diet, corn-soy plus monensin, and a wheat diet. A group was also administrated a probiotic at 1 day age and fed a corn-soy diet. After feeding of the birds with the experimental diets, the differences in the bacterial community structures in the ileum were detected in the form of different profiles of terminal restriction fragments (T-RFs). Some of the T-RFs were commonly distributed, i.e., they were found in all samples, while others varied in distribution and correlated with specific diets. Significant differences were found between the control group (corn-soy diet) and the experimental groups by pairwise-analyzing the T-RFs=profiles.
The bacterial populations are identified using genetic analysis of the 16S RNA gene by GeneScan-Terminal Restriction Fragment Length Polymorphism (T-RFLP) using 16S universal primers and cloning and DNA sequencing of 16S PCR products. GeneScan T-RFLP requires the following steps: labeling the PCR product by using labeled primers; digesting the PCR product with restriction enzymes; separating fragments on gel; and detecting terminal fragments. The sizes of terminal fragments can be calculated based on DNA sequence analysis.
In some experiments, the PCR products were loaded onto a gel from which bands were cut and eluted in 35 μl of sterile filtered distilled water using a QIAquick gel extraction kit (Qiagen, Chatsworth, Calif.). The concentrations of the fluorescently labeled PCR products were measured on a spectrophotometer (DU Series 500, Beckman, Fullerton, Calif.). About 100 ng of purified PCR products was digested in a 10 μl volume for 4 hours at 37 C with 10 U of HaeIII (isoschizomer BsuRI; Fermentas, MBI). Restriction digests were desalted with the QIAquick Nucleotide Removal Kit (Qiagen). The fluorescently labeled terminal restriction fragments (T-RFs) were analyzed by electrophoresis on an automatic sequence analyzer (ABI PRISM 310 DNA Sequencer; PE Biosystems, Foster City, Calif.) in GeneScan mode. Aliquots (2 ul) of T-RFs were mixed with 2 μl of deionized formamide, 0.5 μl of DNA fragment length size standard GS-500 (PE Biosystems). The T-RF mixture was denatured at 94° C. for 5 min and immediately chilled on ice prior to electrophoresis. After electrophoresis, the lengths of fluorescently labeled T-RFs were determined by comparison with internal standards by using GeneScan software (ABI). For each sample, peaks over a threshold of 50 units above background fluorescence were analyzed by manually aligning fragments to the size standard. To avoid detection of primers and uncertainties of size determination, terminal fragments smaller than 35 bp and larger than 525 bp were excluded from the analysis. Reproducibility of patterns was confirmed for repeated T-RFLP analysis of 16S gene amplification using the same DNA extracts from pooled samples.
The information index (Shannon and Weaver (1963) “The Mathematical Theory of Communication,” p. 117, University of Illinois Press, Urbana, Ill.) was used to initially evaluate the diversity of the microbial communities. [formula] Where n is possible categories in a data set and that their proportions are pi, . . . , pn. The H values are the measure of diversity for this system. […]

cecum flora = assay: 16S rDNA clone library analysis of the cecum flora, monensin treatment; assay type: in vivo, chicken; settings: 28 d
[3] = tested on: bacterial flora of the chicken ileum; assay: 16S rDNA clone library analysis of the ileal bacterial community of chickens fed diets with feed additives; assay type: in vivo
[4] = pigs, 50 ppm, compared to controls; cited from earlier work
[5] = ileum, 7 days of age, 16S rDNA clone library
[6] = ileum, 28 days of age, 16S rDNA clone library
[7] = vs control fed the same feed without the antibiotic

CC[C@@]1([C@@H]2O[C@@H]([C@H]3O[C@@](O)(CO)[C@H](C)C[C@@H]3C)C[C@@H]2C)CC[C@H]([C@]2(C)CC[C@]3(C[C@H](O)[C@@H](C)[C@@H]([C@@H](C)[C@@H](OC)[C@H](C)C(=O)O)O3)O2)O1 [Monensin, monensin]
decrease of relative numbers of Lachnospira multiparus-like organisms [1]: about 2 fold | main bacterial composition present in TRFLP peaks in ileum ([2]; 3 day): Enterococcus sp; also recorded: E. coli | main bacterial composition present in TRFLP peaks in ileum ([2]; 7 day): C. irregularis; also recorded: C. lituseburense; also recorded: L. acidophilus | main bacterial composition present in TRFLP peaks in ileum ([2]; 14 day): C. lituseburense; also recorded: C. irregularis; also recorded: Clostridium sp; also recorded: L. crispatus | main bacterial composition present in TRFLP peaks in ileum ([2]; 21 day): C. irregularis; also recorded: C. lituseburense; also recorded: L. crispatus | main bacterial composition present in TRFLP peaks in ileum ([2]; 28 day): C. irregularis; also recorded: L. crispatus; also recorded: L. reuteri | main bacterial composition present in TRFLP peaks in ileum ([2]; 49 day): C. lituseburense; also recorded: L. crispatus | inhibition of C. irregularis ([2]; chicken ileum): not inhibited | Clostridiales, % peak areas ([2]; ileum, 7 days of age): 92.89% | Lactobacillaceae, % peak areas ([2]; ileum, 7 days of age): 7.1% | Clostridiales, % peak areas ([2]; ileum, 28 days of age): 73.2% | Lactobacillaceae, % peak areas ([2]; ileum, 28 days of age): 27.2% | relative peak areas of Lactobacillus ([2]; ileum, whole group (control 73.22%)): 19.25% | cecum flora: Actinobacterium (cecum flora): 43% | cecum flora: Bacteroides (cecum flora): 1% | cecum flora: Clostridium spp. (cecum flora): 27% | cecum flora: Eubacterium (cecum flora): 12% | cecum flora: Lactobacillus spp. (cecum flora): 6% | cecum flora: Ruminococcus (cecum flora): 10% | ileum flora: Clostridium spp. ([3]; 3 d): 1 [17] % | ileum flora: L. crispatus ([3]; 3 d): 1 [4] % | ileum flora: L. salivarius ([3]; 3 d): 1% | ileum: Clostridiaceae ([3]; 3 d): 2 [17] % | ileum: Enterococcus ([3]; 3 d): 9 [3] % | ileum: Lactobacillus spp. ([3]; 3 d): 3 [60] % | ileum: α-Proteobacteria ([3]; 3 d): 1 [1] % | ileum: β-Proteobacteria ([3]; 3 d): 3 [5] % | ileum: δ-Probeobacteria ([3]; 3 d): 82 [2] % | ileum flora: C. irregularis ([3]; 7 d): 45% | ileum flora: C. lituseburense ([3]; 7 d): 24% | ileum flora: Clostridium spp. ([3]; 7 d): 13 [1] % | ileum flora: L. acidophilus ([3]; 7 d): 4 [57] % | ileum flora: L. crispatus ([3]; 7 d): 4 [1] % | ileum flora: L. reuteri ([3]; 7 d): 3% | ileum: Clostridiaceae ([3]; 7 d): 84 [1] % | ileum: Enterococcus ([3]; 7 d): 3 [16] % | ileum: Lactobacillus spp. ([3]; 7 d): 11 [64] % | ileum flora: C. lituseburense ([3]; 14 d): 31% | ileum flora: L. crispatus ([3]; 14 d): 17 [8] % | ileum: Bifidobacter ([3]; 14 d): 2% | ileum: Clostridiaceae ([3]; 14 d): 44 [7] % | ileum: Enterococcus ([3]; 14 d): 33 [13] % | ileum: Lactobacillus spp. ([3]; 14 d): 21 [64] % | ileum flora: C. irregularis ([3]; 21 d): 19% | ileum flora: C. lituseburense ([3]; 21 d): 22% | ileum flora: L. crispatus ([3]; 21 d): 19 [3] % | ileum flora: L. salivarius ([3]; 21 d): 7 [5] % | ileum: Bacteroides ([3]; 21 d): 2 [3] % | ileum: Clostridiaceae ([3]; 21 d): 47 [9] % | ileum: Enterococcus ([3]; 21 d): 11 [3] % | ileum: Lactobacillus spp. ([3]; 21 d): 27 [66] % | ileum flora: C. irregularis ([3]; 28 d): 53% | ileum flora: C. lituseburense ([3]; 28 d): 7% | ileum flora: Clostridium spp. ([3]; 28 d): 1 [6] % | ileum flora: L. crispatus ([3]; 28 d): 17 [75] % | ileum flora: L. reuteri ([3]; 28 d): 11 [7] % | ileum flora: L. salivarius ([3]; 28 d): 2 [2] % | ileum: Bacillus ([3]; 28 d): 1% | ileum: Clostridiaceae ([3]; 28 d): 62 [7] % | ileum: Enterococcus ([3]; 28 d): 1 [3] % | ileum: Lactobacillus spp. ([3]; 28 d): 32 [88] % | ileum: Streptococcus ([3]; 28 d): 1 [1] % | ileum flora: C. irregularis ([3]; 49 d): 3% | ileum flora: C. lituseburense ([3]; 49 d): 42% | ileum flora: Clostridium spp. ([3]; 49 d): 1 [19] % | ileum flora: L. aviaries ([3]; 49 d): 16% | ileum flora: L. crispatus ([3]; 49 d): 20 [36] % | ileum flora: L. reuteri ([3]; 49 d): 5 [1] % | ileum flora: L. salivarius ([3]; 49 d): 3 [28] % | ileum: Bacillus ([3]; 49 d): 5 [4] % | ileum: Bacteroides ([3]; 49 d): 1 [1] % | ileum: Clostridiaceae ([3]; 49 d): 46 [19] % | ileum: Enterococcus ([3]; 49 d): 5 [2] % | ileum: Lactobacillus spp. ([3]; 49 d): 45 [70] % | ileum: Streptococcus ([3]; 49 d): 5% | Clostridiales, % of seq [3, 5]: 82.4% | Enterococcus/Streptococcus, % of seq [3, 5]: 2.7% | Lactobacillaceae, % of seq [3, 5]: 12.9% | Proteobacteria α, % of seq [3, 5]: 1.35% | Bacillaceae, % of seq [3, 6]: 1.05% | Clostridiales, % of seq [3, 6]: 63.2% | Enterococcus/Streptococcus, % of seq [3, 6]: 2.1% | Lactobacillaceae, % of seq [3, 6]: 31.6% | Proteobacteria α, % of seq [3, 6]: 2.1% | clostridial sequences [3, 7]: increased | overall numbers of Lactobacillus sequences [3, 7]: reduced

virginiamycin
Lactobacillus species in the ileum vs controls ([3]; 28 and 49 days of age): significantly fewer | enhancement in feed conversion [4]: 7% | improvement in growth rate [4]: 10%
